{"source": "patent US20110027388A1", "about": "(priority 2009, published 2011)", "key": {"HIV-1 Ba-L isolate": {"test_system": "HIV-1 Ba-L isolate", "format": "cell-based", "conditions": "read-out: IC50 (50% inhibition of virus replication)"}, "HIV-1 NL4-3 isolate": {"test_system": "HIV-1 NL4-3 isolate", "format": "cell-based", "conditions": "read-out: IC50 (50% inhibition of virus replication)"}, "HIV-1": {"test_system": "HIV-1", "format": "cell-based"}, "Zaire Ebola GFP virus [1]": {"test_system": "Zaire Ebola GFP virus", "format": "cell-based"}, "Zaire Ebola GFP virus [2]": {"test_system": "Zaire Ebola GFP virus", "format": "cell-based", "remark": "listed apart in the source"}, "Ebola virus": {"test_system": "Ebola virus", "parameters": "species or system mice", "conditions": "mouse, in vivo, ip, 8 mg/kg"}, "Zaire Ebola GFP virus [3]": {"test_system": "Zaire Ebola GFP virus", "conditions": "read-out: IC50 for the fit"}, "A549 cells [4]": {"test_system": "A549 cells"}, "A549 cells [5]": {"test_system": "A549 cells", "remark": "listed apart in the source"}, "[6]": {"conditions": "mouse, in vivo"}, "Sindbis virus": {"test_system": "Sindbis virus", "conditions": "cited from earlier work"}}, "note": "Where two headings read alike, the source gives them in different places."}
{"smiles": "N.N.N.N.N.N.[Cl-].[Cl-].[Cl-].[Co+3]", "note": "[Cohex, Hexaamminecobalt(III) chloride]", "values": [{"measurement": "IC50", "setting": "HIV-1 Ba-L isolate", "value": 33.8, "unit": "µM"}, {"measurement": "IC50", "setting": "HIV-1 NL4-3 isolate", "value": 28.6, "unit": "µM"}, {"measurement": "IC50", "setting": "HIV-1", "value": 31.2, "unit": "µM"}, {"measurement": "suppression of viral expression (GFP)", "setting": "Zaire Ebola GFP virus [1]", "value": "~100", "unit": "%"}, {"measurement": "suppression of viral expression (GFP)", "setting": "Zaire Ebola GFP virus [2]", "value": "~100", "unit": "%"}, {"measurement": "survival versus PBS treatment", "setting": "Ebola virus", "value": "improved survival rates"}, {"measurement": "CC50", "setting": "PBMCs", "value": 833, "unit": "µM"}, {"measurement": "concentrations at which cytotoxicity was observed", "setting": "PBMCs", "value": "above 100 μM"}, {"measurement": "IC50", "setting": "Zaire Ebola GFP virus [3]", "value": 380, "unit": "µM"}, {"measurement": "concentration until which no toxic effect appears", "setting": "A549 cells [4]", "value": "about 0.1 mM"}, {"measurement": "concentration until which no toxic effect appears", "setting": "HepG2 cells", "value": "about 0.1 mM"}, {"measurement": "viability (leveling off)", "setting": "293T cells", "value": "70-80%"}, {"measurement": "viability (leveling off)", "setting": "VeroE6 cells", "value": "70-80%"}, {"measurement": "dead cells by PI staining", "setting": "A549 cells [5]", "value": "almost no change"}, {"measurement": "tolerability", "setting": "[6]", "value": "no adverse reactions reported"}, {"measurement": "cell viability and viral expression", "setting": "Sindbis virus", "value": "effective in significantly enhancing cell viability and in depressing viral expression"}]}
